# Data published in paper PMC6277767, “Broad and Region-Specific Impacts of the Synthetic Cannabinoid CP 55,940 in Adolescent and Adult Female Mouse Brains” (Frontiers in Molecular Neuroscience, 2018).
# System: CD1 female mouse brain lipidome
# Assay: Brain-region lipid levels (HPLC/MS/MS lipidomics) 2 h after single i.p. 3 mg/kg CP 55,940 vs vehicle
# Assay type: in vivo
# Parameters: N-arachidonoyl phenylalanine level, Mean / N-stearoyl tryptophan level, Mean / N-stearoyl proline level, Mean / N-stearoyl leucine level, Mean / N-stearoyl phenylalanine level, Mean / N-stearoyl serine level, Mean / N-stearoyl methionine level, Mean: unit: moles per gram
# Settings: hypothalamus
# Method: The Bloomington Institutional Animal Care and Use Committee of Indiana University reviewed and approved the animal procedures. Female mice from the CD1 strain were utilized to match our study examining THC’s effects on the brain lipidome ([Leishman et al., 2018]). Mice were given a single i.p. injection of either 3 mg/kg CP or 1:1:18 cremophor:ethanol:saline vehicle (please refer to the section “3 mg/kg CP Is Relevant for Synthetic Cannabinoid Abuse and Has Stronger Effects on the Female Mouse Brain Lipidome During Adolescence” for a justification of dose and use of female mice). Three different age groups were given injections: PND 35 and PND 50 adolescents, and adult mice (PND 113). At least eight mice in each age group received CP and at least eight received vehicle. Matching the THC study time course ([Leishman et al., 2018]), mice were sacrificed via rapid decapitation 2 h after injection. Brains were immediately removed and flash-frozen in liquid nitrogen, and then stored at -80°C until dissections were performed. Brains were dissected on an ice-cold dissection plate into the following regions: STR, HIPP, CER, THAL, CTX, HYP, MID, and STEM. These abbreviations for these brain areas will be used exclusively when discussing the results generated by these specific dissections. Each dissected area was immediately placed in liquid nitrogen and then stored at -80°C until used for lipid extraction.
# Tissue extracts were performed as previously described ([Bradshaw et al., 2006]; [Stuart et al., 2013]; [Raboune et al., 2014]; [Leishman et al., 2016a],[b], [2017], [2018]). First, samples were shock frozen in liquid nitrogen, weighed, and transferred to a centrifuge tube. The mass of the largest sample was multiplied by 50 to determine how many milliliters of HPLC-grade methanol (Fisher, Fair Lawn, NJ, United States) to add. Then, samples were spiked with 500 pmol deuterium-labeled NAGly (d8NAGly; Cayman Chemical, Ann Arbor, MI, United States). Samples were placed on ice in darkness for 2 h then individually homogenized and centrifuged at 19,000 × g for 20 min at 20°C. Supernatants were diluted with HPLC water (purified in house) to make a solution of 75% water, 25% supernatant. Lipids were partially purified on C18 solid phase extraction columns (Agilent, Palo Alto, CA, United States). A series of four elutions with 1.5 mL of 60%, 75%, 85%, and 100% methanol were collected ([Stuart et al., 2013]; [Leishman et al., 2016a],[b], [2018]).
# As previously described ([Bradshaw et al., 2006]; [Tan et al., 2006]; [Smoum et al., 2010]; [Stuart et al., 2013]; [Tortoriello et al., 2013]; [Raboune et al., 2014]; [Leishman et al., 2016a],[b], [2017], [2018]), samples were analyzed using an Applied Biosystems API 3000 triple quadrupole mass spectrometer with electrospray ionization (Foster City, CA, United States). Using an Agilent XDB-C18 reversed phase analytical column and optimized mobile phase gradients, 20 μL from each elution were chromatographed. Two Shimadzu 10ADvp pumps (Columbia, MD, United States) provided the pressure for gradient elution. Mobile phase A: 20% methanol, 80% water (v/v) and 1 mM ammonium acetate (Sigma, St. Louis, MO, United States). Mobile phase B: 100% methanol, 1 mM ammonium acetate. Every method run began with 0% mobile phase B, reached 100% mobile phase B flowing at 0.2 mL/min, and gradually returned to 0% mobile phase B.
# This screening library will be referred to as the lipidome when discussing data from this study. HPLC/MS/MS data were analyzed using Analyst software (Applied Biosystems) ([Bradshaw et al., 2006]; [Tan et al., 2006]; [Stuart et al., 2013]; [Tortoriello et al., 2013]; [Raboune et al., 2014]; [Leishman et al., 2016a],[b], [2017], [2018]). Chromatograms (Supplementary Figure 3) were generated by determining the retention time of analytes from the analytical column with a [M-1] or [M+1] parent peak and a fragmentation peak corresponding to the programmed values. […]
# [1] = PND 50 female mice, 3mg/kg CP 55,940
# [2] = PND 35 adolescent female mice, 3 mg/kg
smiles,measurement,setting,value
"CCCCCCC(C)(C)c1ccc([C@@H]2C[C@H](O)CC[C@H]2CCCO)c(O)c1 [CP 55,940]","N-docosahexaenoyl methionine level, Mean",[1],BDL
same,"N-docosahexaenoyl phenylalanine level, Mean",[1],PISSR
same,"N-docosahexaenoyl proline level, Mean",[1],BDL
same,"N-docosahexaenoyl serine level, Mean",[1],PISSR
same,"N-docosahexaenoyl tryptophan level, Mean",[1],BDL
same,"N-docosahexaenoyl tyrosine level, Mean",[1],BDL
same,"N-docosahexaenoyl valine level, Mean",[1],BDL
same,"N-linoleoyl GABA level, Mean",[1],PISSR
same,"N-linoleoyl alanine level, Mean",[1],3.81E-13
same,"N-linoleoyl ethanolamine level, Mean",[1],3.47E-11
same,"N-linoleoyl glycine level, Mean",[1],1.12E-13
same,"N-linoleoyl leucine level, Mean",[1],PISSR
same,"N-linoleoyl methionine level, Mean",[1],BDL
same,"N-linoleoyl phenylalanine level, Mean",[1],PISSR
same,"N-linoleoyl proline level, Mean",[1],BDL
same,"N-linoleoyl serine level, Mean",[1],1.7E-10
same,"N-linoleoyl tryptophan level, Mean",[1],BDL
same,"N-linoleoyl tyrosine level, Mean",[1],BDL
same,"N-linoleoyl valine level, Mean",[1],BDL
same,"N-nervonoyl valine level, Mean",[1],BDL
same,"N-oleoyl GABA level, Mean",[1],1.97E-12
same,"N-oleoyl alanine level, Mean",[1],2.61E-12
same,"N-oleoyl dopamine level, Mean",[1],BDL
same,"N-oleoyl ethanolamine level, Mean",[1],8.36E-11
same,"N-oleoyl glycine level, Mean",[1],5.38E-13
same,"N-oleoyl leucine level, Mean",[1],3.54E-13
same,"N-oleoyl methionine level, Mean",[1],PISSR
same,"N-oleoyl phenylalanine level, Mean",[1],6.88E-13
same,"N-oleoyl proline level, Mean",[1],BDL
same,"N-oleoyl serine level, Mean",[1],3.07E-10
same,"N-oleoyl tryptophan level, Mean",[1],BDL
same,"N-oleoyl tyrosine level, Mean",[1],1.89E-13
same,"N-oleoyl valine level, Mean",[1],PISSR
same,"N-palmitoyl GABA level, Mean",[1],6.6E-12
same,"N-palmitoyl alanine level, Mean",[1],6.9E-12
same,"N-palmitoyl ethanolamine level, Mean",[1],6.24E-11
same,"N-palmitoyl glycine level, Mean",[1],3.58E-12
same,"N-palmitoyl leucine level, Mean",[1],1.26E-12
same,"N-palmitoyl methionine level, Mean",[1],9.4E-13
same,"N-palmitoyl phenylalanine level, Mean",[1],1.3E-12
same,"N-palmitoyl proline level, Mean",[1],BDL
same,"N-palmitoyl serine level, Mean",[1],3.09E-11
same,"N-palmitoyl tryptophan level, Mean",[1],BDL
same,"N-palmitoyl tyrosine level, Mean",[1],4.12E-13
same,"N-palmitoyl valine level, Mean",[1],2.32E-13
same,"N-stearoyl GABA level, Mean",[1],7.69E-12
same,"N-stearoyl alanine level, Mean",[1],9.94E-13
same,"N-stearoyl ethanolamine level, Mean",[1],3.67E-11
same,"N-stearoyl glycine level, Mean",[1],5.58E-13
same,"N-stearoyl leucine level, Mean",[1],9.96E-13
same,"N-stearoyl methionine level, Mean",[1],5.57E-13
same,"N-stearoyl phenylalanine level, Mean",[1],1.28E-12
same,"N-stearoyl proline level, Mean",[1],BDL
same,"N-stearoyl serine level, Mean",[1],5.5E-11
same,"N-stearoyl tryptophan level, Mean",[1],BDL
same,"N-stearoyl tyrosine level, Mean",[1],1.01E-13
same,"Oleic acid level, Mean",[1],2.82E-10
same,"PGE2 level, Mean",[1],7.14E-11
same,"PhosphoLEA level, Mean",[1],1.12E-11
same,"THC level, Mean",[1],BDL
same,"2-arachidonoyl glycerol level, Mean",[2],6.64E-10
same,"2-linoleoyl glycerol level, Mean",[2],5.43E-11
same,"2-oleoyl glycerol level, Mean",[2],7.45E-10
same,"2-palmitoyl glycerol level, Mean",[2],7.93E-10
same,"6-ketoPGF1α level, Mean",[2],1.71E-11
same,"Arachidonic acid level, Mean",[2],3.33E-09
same,"Linoleic acid level, Mean",[2],2.5E-10
same,"N- stearoyl valine level, Mean",[2],1.41E-12
same,"N-arachidonoyl GABA level, Mean",[2],3.93E-11
same,"N-arachidonoyl alanine level, Mean",[2],5.15E-12
same,"N-arachidonoyl ethanolamine level, Mean",[2],5.6E-12
same,"N-arachidonoyl glycine level, Mean",[2],5.39E-12
same,"N-arachidonoyl phenylalanine level, Mean",[2],7.34E-13
same,"N-arachidonoyl taurine level, Mean",[2],1.56E-11
same,"N-docosahexaenoyl GABA level, Mean",[2],5.25E-12
same,"N-docosahexaenoyl ethanolamine level, Mean",[2],1.68E-11
same,"N-docosahexaenoyl glycine level, Mean",[2],4.59E-13
same,"N-linoleoyl alanine level, Mean",[2],4.26E-12
same,"N-linoleoyl ethanolamine level, Mean",[2],1.7E-11
same,"N-linoleoyl glycine level, Mean",[2],3.45E-13
same,"N-linoleoyl serine level, Mean",[2],6.26E-11
same,"N-oleoyl GABA level, Mean",[2],2.02E-11
same,"N-oleoyl alanine level, Mean",[2],1.14E-11
same,"N-oleoyl ethanolamine level, Mean",[2],1.79E-10
same,"N-oleoyl glycine level, Mean",[2],3.5E-12
same,"N-oleoyl leucine level, Mean",[2],3.49E-13
same,"N-oleoyl phenylalanine level, Mean",[2],1.8E-12
same,"N-oleoyl serine level, Mean",[2],2.72E-10
same,"N-oleoyl valine level, Mean",[2],3.31E-13
same,"N-palmitoyl GABA level, Mean",[2],3.44E-11
same,"N-palmitoyl alanine level, Mean",[2],3.03E-11
same,"N-palmitoyl ethanolamine level, Mean",[2],4.49E-11
same,"N-palmitoyl glycine level, Mean",[2],1.16E-11
same,"N-palmitoyl leucine level, Mean",[2],2.12E-12
same,"N-palmitoyl methionine level, Mean",[2],5.5E-12
same,"N-palmitoyl phenylalanine level, Mean",[2],4.4E-12
same,"N-palmitoyl serine level, Mean",[2],1.07E-11
same,"N-palmitoyl tyrosine level, Mean",[2],1.52E-12
same,"N-palmitoyl valine level, Mean",[2],1.65E-12
same,"N-stearoyl GABA level, Mean",[2],3.84E-11
same,"N-stearoyl alanine level, Mean",[2],1.89E-11
same,"N-stearoyl ethanolamine level, Mean",[2],3.64E-11
same,"N-stearoyl glycine level, Mean",[2],8.37E-12
